Data from paper PMC6954543, “A window-of-opportunity trial of the CXCR1/2 inhibitor reparixin in operable HER-2-negative breast cancer” (Breast Cancer Research : BCR, 2020).

Tested on: ALDH1, CD24 and CD44 transcripts
Assay: CSC markers in core biopsies by RT-PCR
Assay type: in vivo, human
Details: 14 patients
Method: Core biopsy samples were placed in RNAlater, suspended in 700 μL of TRIzol® LS Reagent (Invitrogen) and homogenized using Bullet Blender (Next Advance Inc.). Next, RNA was extracted using the miRNeasy mini kit (Qiagen) and processed with the QIACube (Qiagen) automated low-throughput sample prep system. Thereafter, the isolated RNAs were reverse transcribed to cDNA (High Capacity cDNA Reverse Transcription Kit, ABI) and subsequently underwent quantitative RT-PCR (qRT-PCR) using 7900HT Fast Real-Time PCR System (ABI) to detect transcripts of markers associated with CSC (ALDH1, CD44, CD24, Akt, and PI3K), EMT (TWIST1, FOXC2, SNAIL1, SNAIL2, TG2, and ZEB1), epithelial cells (KRT19 and EpCAM), and leukocytes (CD45). We used average delta Ct (dCT) < 2 as a cutoff to determine the relative gene expression level. Since normal tissue was not available to act as the normalizer, we used GAPDH as the endogenous control (dCT = CTtarget − CTendogenous control).

## CC(C)Cc1ccc([C@@H](C)C(=O)NS(C)(=O)=O)cc1 [reparixin]
  patients negative for CSC at both baseline and day 21: 6 patients
  patients with CSC (transcripts for CD44 but not CD24) at both baseline and day 21: Five
1/14 expressed ALDH1 at baseline
  ALDH1 transcripts at day 21: all patients were negative
